Measurements from publication PMC8027839 (Scientific Reports, 2021).
“Also recorded” adds a separate entry of the source. Like-named read-outs stand apart in the source and are kept apart here.

Tests used:
SapM [1] = biological target: T1, SapM (Mycobacterium tuberculosis, UniProt O53361); test: biochemical; format: biochemical; settings: for remaining activity at 100 µM: 0.5 h, read-out: %SA (percentage specific activity of SapM); for inhibition at 100 µM: read-out: inhibition of SapM activity (reduction in SA)
T1 construct: made in house; host or cells: Escherichia coli C41 (DE3)
T1 sequence (O53361 44-299): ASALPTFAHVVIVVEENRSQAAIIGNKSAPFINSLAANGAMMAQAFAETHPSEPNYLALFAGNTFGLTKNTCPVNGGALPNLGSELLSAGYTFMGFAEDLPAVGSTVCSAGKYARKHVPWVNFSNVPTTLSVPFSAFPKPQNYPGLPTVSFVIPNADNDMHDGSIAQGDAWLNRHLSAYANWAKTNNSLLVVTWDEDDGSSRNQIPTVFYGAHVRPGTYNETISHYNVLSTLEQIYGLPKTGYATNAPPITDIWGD

SapM [2] = biological target: T1, SapM; set-up: method as in PMID 31312014; settings: previously reported; cited from earlier work
MptpA = MptpA (Mycobacterium tuberculosis, UniProt P9WIA1); test: biochemical; settings: pH 6
Chain of MptpA (P9WIA1 whole entry): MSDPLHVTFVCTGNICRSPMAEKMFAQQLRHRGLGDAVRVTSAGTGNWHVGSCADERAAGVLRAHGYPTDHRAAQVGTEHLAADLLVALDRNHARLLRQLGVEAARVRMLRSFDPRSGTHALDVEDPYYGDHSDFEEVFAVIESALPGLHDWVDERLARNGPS

MptpB = MptpB (Mycobacterium tuberculosis, UniProt I6WXK4); test: biochemical; settings: pH 6
Chain of MptpB (I6WXK4 whole entry, looked up): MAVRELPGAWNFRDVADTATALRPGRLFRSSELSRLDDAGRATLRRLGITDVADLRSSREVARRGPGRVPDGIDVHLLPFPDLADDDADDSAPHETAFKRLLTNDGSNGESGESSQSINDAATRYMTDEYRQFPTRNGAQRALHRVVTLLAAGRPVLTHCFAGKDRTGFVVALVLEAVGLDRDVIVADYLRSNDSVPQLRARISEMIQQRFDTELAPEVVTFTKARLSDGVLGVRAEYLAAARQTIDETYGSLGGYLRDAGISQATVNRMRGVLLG

PTP1B = biological target: T2, PTP1B (Homo sapiens, UniProt P18031); test: hPTP1B inhibition, pNPP assay; format: biochemical; settings: pNPP assay, pH 5.5; read-out: IC50 PTP1B
T2 sequence (P18031 1-435): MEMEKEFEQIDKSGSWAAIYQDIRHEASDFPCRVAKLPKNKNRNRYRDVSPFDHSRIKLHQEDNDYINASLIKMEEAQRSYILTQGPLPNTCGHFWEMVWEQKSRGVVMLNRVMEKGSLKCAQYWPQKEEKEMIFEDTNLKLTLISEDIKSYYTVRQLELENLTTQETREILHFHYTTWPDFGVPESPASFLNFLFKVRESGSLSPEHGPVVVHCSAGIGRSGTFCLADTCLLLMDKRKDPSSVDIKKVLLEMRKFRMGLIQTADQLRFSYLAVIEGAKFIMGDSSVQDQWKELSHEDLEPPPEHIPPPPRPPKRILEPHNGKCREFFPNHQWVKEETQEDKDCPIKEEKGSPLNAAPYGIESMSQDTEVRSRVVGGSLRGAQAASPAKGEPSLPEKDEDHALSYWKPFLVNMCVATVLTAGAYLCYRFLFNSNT

SapM [3] = biological target: T1, SapM; test: Type of inhibition of SapM, Lineweaver-Burk plots; format: biochemical
Description: To determine the type of inhibition different inhibitor concentrations were selected to yield around 30% and 75% inhibition for each concentration of pNPP. This ensures sufficient signal to obtain accurate data while allowing a significant inhibition effect. Velocity (V) was plotted as a function of pNPP concentration and fit in a Lineweaver–Burk plot (double-reciprocal) using GraphPad Prism 8.41. All assays were done in 96-well microplates and performed in triplicate in at least two independent experiments.

VHR = VHR (Homo sapiens, UniProt P51452); test: hVHR inhibition, pNPP assay; format: biochemical; settings: pNPP assay, pH 5.5; read-out: IC50 VHR
Chain of VHR (P51452 whole entry): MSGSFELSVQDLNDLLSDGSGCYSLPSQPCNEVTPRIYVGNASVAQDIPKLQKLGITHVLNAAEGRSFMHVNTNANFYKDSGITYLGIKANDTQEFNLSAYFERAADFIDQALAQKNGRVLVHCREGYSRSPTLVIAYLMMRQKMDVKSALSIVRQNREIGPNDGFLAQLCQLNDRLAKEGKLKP

SapM [4] = biological target: T1, SapM; test: Microscale thermophoresis of SapM binding
Method: Microscale thermophoresis (MST) was used to study the direct binding interaction of SapM with three compounds 1, 2 and 13. SapM was labelled with NTA-647nm dye which attaches to the 6-histidine tag. 100 nM NTA-647 was incubated with 200 nM SapM for 1-hour at 4 °C and then centrifuged at 20,000 rcf for 20 minutes at 4 °C in 20 mM HEPES, 200 mM NaCl pH 7.0. 10 mM compound was diluted to 500 μM in the same buffer. Binding checks were carried out with labelled SapM (5 nM) with and without 250 nM compound with LED power of 20% and a medium MST power in a Monolith Pico instrument and using standard capillaries. Binding analysis was performed with a doubling serial dilution from 250 nM with 16 dilutions and a constant concentration of 5 nM labelled SapM.

AcpA = AcpA (Francisella tularensis subsp. novicida, UniProt A0Q436); test: biochemical
Chain of AcpA (A0Q436 21-514 limits assumed): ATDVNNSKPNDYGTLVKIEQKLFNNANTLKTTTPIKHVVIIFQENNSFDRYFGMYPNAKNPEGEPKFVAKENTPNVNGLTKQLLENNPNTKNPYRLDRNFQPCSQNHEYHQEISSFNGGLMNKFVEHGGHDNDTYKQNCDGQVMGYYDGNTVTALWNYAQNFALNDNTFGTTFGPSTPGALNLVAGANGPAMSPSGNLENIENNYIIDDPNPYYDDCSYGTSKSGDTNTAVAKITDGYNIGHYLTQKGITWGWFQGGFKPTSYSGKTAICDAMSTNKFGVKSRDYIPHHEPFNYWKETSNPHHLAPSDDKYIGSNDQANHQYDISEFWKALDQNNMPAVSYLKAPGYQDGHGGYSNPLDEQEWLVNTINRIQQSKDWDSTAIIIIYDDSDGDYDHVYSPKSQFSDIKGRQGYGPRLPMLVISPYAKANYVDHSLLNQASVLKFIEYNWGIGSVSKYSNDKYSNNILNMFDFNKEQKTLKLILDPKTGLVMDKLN

[5] = compounds at 100 µM, relative to pNPP DMSO control

N#CC(=Cc1ccc2[nH]ccc2c1)C(N)=C(C#N)C#N [Compound 18, Tyrphostin AG 370]
%SA (percentage specific activity of SapM) (SapM [1]; [5]): 94.6 ± 3.1%

CC(C)(C)c1cc(/C=C(\C#N)C(N)=S)cc(C(C)(C)C)c1O [Compound 8, Tyrphostin AG 879]
remaining activity at 100 µM (SapM [1]; [5]): 78.7 ± 6.6% | inhibition at 100 µM (SapM [1]; compounds at 100 µM): < 21%

O=C1O[C@H]([C@@H](O)CO)C(O)=C1O [L-AC, L-ascorbic acid]
IC50 (SapM [2]): > 200 µM

N#CC(C#N)=C(N)/C(C#N)=C/c1cc(O)c(O)c(O)c1 [Compound 13, Tyrphostin AG 183]
IC50 (MptpA; pNPP assay): 16.7 ± 1 µM | IC50 (MptpB; pNPP assay): > 100 µM | effect on SapM enzyme activity (SapM [1]; compounds at 100 µM): completely abolished enzyme activity; also recorded: abolished enzyme activity completely | %SA (percentage specific activity of SapM) (SapM [1]; [5]): 0% | IC50 (SapM [1]; pNPP assay, dose-response): 8.2 ± 1 µM | IC50 (PTP1B): > 100 µM | mechanism of inhibition of SapM (SapM [3]): uncompetitive inhibitors | IC50 (VHR): > 100 µM | binding to SapM by MST (SapM [4]): confirmed | EC50 (SapM [4]; Bivalent fit EC50 (1), MST titration, tighter binding mode): 0.59 µM

O=[N+]([O-])c1ccc(Oc2ccc(Br)cc2)c(C(O)P(=O)(O)O)c1 (stereo not shown) [Compound 6, RWJ-60475]
IC50 (MptpA): > 100 µM | IC50 (MptpB): > 100 µM | %SA (percentage specific activity of SapM) (SapM [1]): 46.6 ± 0.9% | IC50 (SapM [1]): 41.9 ± 1.1 µM

Tyrphostin AG 974 [Compound 17]
%SA (percentage specific activity of SapM) (SapM [1]; [5]): 71.9 ± 1.4%

Tyrphostin AG 114 [Compound 15]
%SA (percentage specific activity of SapM) (SapM [1]; [5]): 48.6 ± 1.1% | IC50 (SapM [1]; pNPP assay, dose-response): 78.4 ± 2.7 µM

O=c1cc(-c2ccc(O)cc2)oc2cc(O)cc(O)c12 [Compound 22, Apigenin]
remaining activity at 100 µM (SapM [1]; [5]): 103 ± 1.1%

N#CC(C#N)=Cc1ccc([N+](=O)[O-])c(O)c1 [Compound 19, Tyrphostin AG 126]
%SA (percentage specific activity of SapM) (SapM [1]; [5]): 99.0 ± 5.5%

NC(Cc1cc(O)c(O)cc1O)C(=O)O (racemic) [Compound 20, 6-Hydroxy-DL-DOPA]
inhibition of SapM activity (reduction in SA) (SapM [1]; compounds at 100 µM): ~ 30% | %SA (percentage specific activity of SapM) (SapM [1]; [5]): 71.7 ± 3.4%

N#C/C(=C\c1ccc(O)c(O)c1)C(N)=O [Compound 16, Tyrphostin AG 99]
%SA (percentage specific activity of SapM) (SapM [1]; [5]): 58.3 ± 0.6%

O=C(O)c1cc(O)c(O)c(O)c1 [Compound 29, Gallic acid]
IC50 (MptpA; pNPP assay): > 100 µM | IC50 (MptpB; pNPP assay): > 100 µM | remaining activity at 100 µM (SapM [1]; [5]): 30.7 ± 3.6% | inhibition at 100 µM (SapM [1]; compounds at 100 µM): ~70% | IC50 (SapM [1]; pNPP assay, dose-response): 63 ± 1.5 µM

N#CC(C#N)=Cc1ccc(O)c(O)c1 [Compound 7, Tyrphostin 23]
remaining activity at 100 µM (SapM [1]; [5]): 73.5 ± 3.1% | inhibition at 100 µM (SapM [1]; compounds at 100 µM): 30 to 50%

Oc1cc(O)c2c(c1)O[C@H](c1ccc(O)c(O)c1)[C@H](O)C2 [Compound 32, (−)-Epicatechin]
remaining activity at 100 µM (SapM [1]; [5]): 97.9 ± 7.2%

O=C1O[C@H]([C@@H](O)CO)C(O)=C1OP(=O)(O)O [Compound 2P-AC, 2-phospho-L-ascorbic acid]
IC50 (SapM [2]): > 200 µM | IC50 (AcpA): 116 ± 1.02 µM

N[C@H](C(=O)O)[C@H](O)c1ccc(O)c(O)c1 [Compound 27, L-DOPS]
remaining activity at 100 µM (SapM [1]; [5]): 85.9 ± 4.2%
